According to patent publication US8895733B2 (Novartis AG, priority 2010, dated 2014):

target: T1, Nav 1.7 (Homo sapiens, UniProt Q15858); test: Whole-cell voltage clamp electrophysiology, automated patch clamp (marker c in Table of Examples); format: cell-based; conditions: marker c = Automated patch clamp data; read-out: Nav 1.7 activity
T1 construct: expressed in transfected cells
Outline: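 A voltage protocol weighted toward inactivated-state block was used to test compounds on stably expressing cells, with pulses from −65 mV holding to −10 mV test and −100 mV. Currents came from whole-cell automated patch-clamp recordings, either IonWorks Quattro or other automated instruments, usually in perforated-patch mode.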

T1 sequence (Q15858 whole entry): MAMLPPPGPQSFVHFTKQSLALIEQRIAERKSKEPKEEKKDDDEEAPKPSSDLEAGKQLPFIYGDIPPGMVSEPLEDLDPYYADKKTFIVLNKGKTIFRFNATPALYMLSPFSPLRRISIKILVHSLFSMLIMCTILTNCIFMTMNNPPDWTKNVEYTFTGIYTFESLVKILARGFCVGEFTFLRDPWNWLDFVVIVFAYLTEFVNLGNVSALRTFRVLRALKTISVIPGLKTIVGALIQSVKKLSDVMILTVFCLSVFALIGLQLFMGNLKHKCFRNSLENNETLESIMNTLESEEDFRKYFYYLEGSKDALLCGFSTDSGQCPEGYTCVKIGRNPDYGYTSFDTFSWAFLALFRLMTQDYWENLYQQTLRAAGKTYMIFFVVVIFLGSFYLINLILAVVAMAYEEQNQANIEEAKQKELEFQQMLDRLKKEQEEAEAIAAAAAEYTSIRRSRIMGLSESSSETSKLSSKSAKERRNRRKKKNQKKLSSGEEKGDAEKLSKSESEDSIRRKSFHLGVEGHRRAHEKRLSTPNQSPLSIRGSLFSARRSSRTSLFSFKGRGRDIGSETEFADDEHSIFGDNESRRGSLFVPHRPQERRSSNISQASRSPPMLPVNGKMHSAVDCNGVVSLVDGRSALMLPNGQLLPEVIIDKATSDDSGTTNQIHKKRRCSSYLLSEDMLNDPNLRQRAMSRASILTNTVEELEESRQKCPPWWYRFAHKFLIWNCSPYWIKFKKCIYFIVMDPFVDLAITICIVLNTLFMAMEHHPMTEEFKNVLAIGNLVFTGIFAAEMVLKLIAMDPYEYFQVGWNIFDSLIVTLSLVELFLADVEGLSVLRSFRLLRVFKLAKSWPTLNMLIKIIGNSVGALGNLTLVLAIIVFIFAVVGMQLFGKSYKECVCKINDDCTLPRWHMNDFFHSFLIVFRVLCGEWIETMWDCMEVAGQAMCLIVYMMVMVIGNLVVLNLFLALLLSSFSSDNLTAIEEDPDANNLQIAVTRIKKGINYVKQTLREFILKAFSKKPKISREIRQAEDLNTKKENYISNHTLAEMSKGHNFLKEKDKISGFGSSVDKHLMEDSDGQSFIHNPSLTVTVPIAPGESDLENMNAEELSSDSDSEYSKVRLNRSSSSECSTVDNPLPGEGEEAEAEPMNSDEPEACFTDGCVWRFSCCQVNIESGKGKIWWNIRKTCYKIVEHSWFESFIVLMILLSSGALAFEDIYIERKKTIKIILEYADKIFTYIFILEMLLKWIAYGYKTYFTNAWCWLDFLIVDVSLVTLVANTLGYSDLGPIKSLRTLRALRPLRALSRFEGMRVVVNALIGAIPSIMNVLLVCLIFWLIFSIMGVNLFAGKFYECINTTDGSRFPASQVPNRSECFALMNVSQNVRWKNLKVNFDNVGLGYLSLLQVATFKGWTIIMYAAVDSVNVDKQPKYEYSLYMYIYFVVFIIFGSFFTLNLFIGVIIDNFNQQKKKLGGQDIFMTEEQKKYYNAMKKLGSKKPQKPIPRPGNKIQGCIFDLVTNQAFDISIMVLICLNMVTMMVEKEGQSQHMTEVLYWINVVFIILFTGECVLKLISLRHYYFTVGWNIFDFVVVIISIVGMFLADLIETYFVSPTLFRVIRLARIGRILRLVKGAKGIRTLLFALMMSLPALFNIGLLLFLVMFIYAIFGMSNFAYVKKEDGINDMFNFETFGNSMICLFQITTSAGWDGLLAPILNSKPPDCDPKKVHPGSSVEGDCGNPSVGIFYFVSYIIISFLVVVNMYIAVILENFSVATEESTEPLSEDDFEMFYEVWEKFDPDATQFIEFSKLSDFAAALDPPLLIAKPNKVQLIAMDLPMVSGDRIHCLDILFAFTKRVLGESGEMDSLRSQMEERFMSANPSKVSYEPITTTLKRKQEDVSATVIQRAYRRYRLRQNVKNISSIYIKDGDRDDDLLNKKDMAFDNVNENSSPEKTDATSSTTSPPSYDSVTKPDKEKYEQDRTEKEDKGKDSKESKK

IC50 | SMILES
273 nM | CN(c1ccccc1)c1nc(N)nc(-c2noc(-c3ccc(OC4CCOCC4)nc3)n2)n1 [Example 361, 2-N-methyl-6-{5-[6-(oxan-4-yloxy)pyridin-3-yl]-1,2,4-oxadiazol-3-yl}-2-N-phenyl-1,3,5-triazine-2,4-diamine]
711 nM | CN(c1ccccc1)c1nc(N)nc(-c2noc(N3CCC(SCC(F)(F)F)CC3)n2)n1 [Example 362, 2-N-methyl-2-N-phenyl-6-(5-{4-[(2,2,2-trifluoroethyl)sulfanyl]piperidin-1yl}-1,2,4-oxadiazol-3-yl)-1,3,5-triazine-2,4-diamine]
7 nM | Nc1nc(Nc2ccccc2)nc(-c2noc(-c3ccc(OCCC(F)(F)F)nc3)n2)n1 [Example 363, 2-N-phenyl-6-{5-[6-(3,3,3-trifluoropropoxy)pyridin-3-yl]-1,2,4-oxadiazol-3-yl}-1,3,5-triazine-2,4-diamine]
1620 nM | CN1CCC(Oc2ccc(-c3nc(-c4nc(N)nc(N(C)c5ccccc5)n4)no3)cn2)C1 (stereo not drawn) [Example 364, 2-N-methyl-6-(5-{6-[(1-methylpyrrolidin-3-yl)oxy]pyridin-3-yl}-1,2,4-oxadiazol-3-yl)-2-N-phenyl-1,3,5-triazine-2,4-diamine]
> 8460 nM | CN(c1ccccc1)c1nc(N)nc(-c2noc(N3CCC(S(=O)(=O)CC(F)(F)F)CC3)n2)n1 [Example 365, 2-N-methyl-2-N-phenyl-6-(5-{4-[(2,2,2-trifluoroethane)sulfonyl]piperidin-1-yl}-1,2,4-oxadiazol-3-yl)-1,3,5-triazine-2,4-diamine]
52.5 nM | CN(c1ccccc1)c1nc(N)nc(-c2noc(-c3ccc(OCCOCC(F)(F)F)nc3)n2)n1 [Example 366, 2-N-Methyl-2-N-phenyl-6-(5-{6-[2-(2,2,2-trifluoroethoxy)ethoxy]pyridin-3-yl}-1,2,4-oxadiazol-3-yl)-1,3,5-triazine-2,4-diamine]
2060 nM | CC(C)SC1CCN(c2nc(-c3nc(N)nc(N(C)c4ccccc4)n3)no2)CC1 [Example 367, 2-N-methyl-2-N-phenyl-6-{5-[4-(propan-2-ylsulfanyl)piperidin-1-yl]-1,2,4-oxadiazol-3-yl}-1,3,5-triazine-2,4-diamine]
6700 nM | CC(C)[S+]([O-])C1CCN(c2nc(-c3nc(N)nc(N(C)c4ccccc4)n3)no2)CC1 (stereo not drawn) [Example 368, 2-N-methyl-2-N-phenyl-6-{5-[4-(propane-2-sulfinyl)piperidin-1-yl]-1,2,4-oxadiazol-3-yl}-1,3,5-triazine-2,4-diamine]
1320 nM | CN(c1ccccc1)c1nc(N)nc(-c2noc(-c3ncccc3C(=O)NCC3CC3)n2)n1 [Example 369, 2-(3-{4-amino-6-[methyl(phenyl)amino]-1,3,5-triazin-2-yl}-1,2,4-oxadiazol-5-yl)-N-(cyclopropylmethyl)pyridine-3-carboxamide]
3510 nM | CN(c1ccccc1)c1nc(N)nc(-c2noc(-c3cccnc3C(=O)NCC3CC3)n2)n1 [Example 370, 3-(3-{4-amino-6-[methyl(phenyl)amino]-1,3,5-triazin-2-yl}-1,2,4-oxadiazol-5-yl)-N-(cyclopropylmethyl)pyridine-2-carboxamide]
7300 nM | CN(c1ccccc1)c1nc(N)nc(-c2noc(-c3ncccc3C(=O)NC3CCC3)n2)n1 [Example 371, 2-(3-{4-amino-6-[methyl(phenyl)amino]-1,3,5-triazin-2-yl}-1,2,4-oxadiazol-5-yl)-N-cyclobutylpyridine-3-carboxamide]
155 nM | CN(c1ccccc1)c1nc(N)nc(-c2noc(-c3ccc(OCC(F)F)nc3)n2)n1 [Example 372, 6-{5-[6-(2,2-difluoroethoxy)pyridin-3-yl]-1,2,4-oxadiazol-3-yl}-2-N-methyl-2-N-phenyl-1,3,5-triazine-2,4-diamine]
4880 nM | CN(c1ccccc1)c1nc(N)nc(-c2noc(-c3cccnc3C(=O)NC3CC3)n2)n1 [Example 373, 3-(3-{4-amino-6-[methyl(phenyl)amino]-1,3,5-triazin-2-yl}-1,2,4-oxadiazol-5-yl)-N-cyclopropylpyridine-2-carboxamide]
2080 nM | CN(c1ccccc1)c1nc(N)nc(-c2noc(-c3cccnc3C(=O)NC3CCC3)n2)n1 [Example 374, 3-(3-{4-amino-6-[methyl(phenyl)amino]-1,3,5-triazin-2-yl}-1,2,4-oxadiazol-5-yl)-N-cyclobutylpyridine-2-carboxamide]
1510 nM | CN(c1ccccc1)c1nc(N)nc(-c2noc(-c3cccnc3C(=O)NCC(F)(F)F)n2)n1 [Example 375, 3-(3-{4-amino-6-[methyl(phenyl)amino]-1,3,5-triazin-2-yl}-1,2,4-oxadiazol-5-yl)-N-(2,2,2-trifluoroethyl)pyridine-2-carboxamide]
9500 nM | CN(c1ccccc1)c1nc(N)nc(-c2noc(-c3ncccc3C(=O)NC3CC3)n2)n1 [Example 376, 2-(3-{4-amino-6-[methyl(phenyl)amino]-1,3,5-triazin-2-yl}-1,2,4-oxadiazol-5-yl)-N-cyclopropylpyridine-3-carboxamide]
232 nM | CN(c1ccccc1)c1nc(N)nc(-c2noc(-c3ncccc3C(=O)OCC3CC3)n2)n1 [Example 377]
399 nM | CN(c1ccccc1)c1nc(N)nc(-c2noc(-c3cccnc3C(=O)OCC3CC3)n2)n1 [Example 378, cyclopropylmethyl 3-(3-{4-amino-6-[methyl(phenyl)amino]-1,3,5-triazin-2-yl}-1,2,4-oxadiazol-5-yl)pyridine-2-carboxylate]

Second part, the molecule before the results:

SMILES | IC50
CN(c1ccccc1)c1nc(N)nc(-c2noc(-c3nc(C(F)(F)F)cs3)n2)n1 [Example 345, 2-N-methyl-2-N-phenyl-6-{5-[4-(trifluoromethyl)-1,3-thiazol-2-yl]-1,2,4-oxadiazol-3-yl}-1,3,5-triazine-2,4-diamine] | 1970 nM
CN(c1ccccc1)c1nc(N)nc(-c2noc(N3CCN(C(=O)C(F)(F)F)CC3)n2)n1 [Example 347, 1-[4-(3-{4-amino-6-[methyl(phenyl)amino]-1,3,5-triazin-2-yl}-1,2,4-oxadiazol-5-yl)piperazin-1-yl]-2,2,2-trifluoroethan-1-one] | 5810 nM
CN(c1ccccc1)c1nc(N)nc(-c2noc(-c3ncccc3C(F)(F)F)n2)n1 [Example 348, 2-N-methyl-2-N-phenyl-6-{5-[3-(trifluoromethyl)pyridin-2-yl]-1,2,4-oxadiazol-3-yl}-1,3,5-triazine-2,4-diamine] | 328 nM
CN(c1ccccc1)c1nc(N)nc(-c2noc(-c3ccc(COCC(F)(F)F)cn3)n2)n1 [Example 349, 2-N-methyl-2-N-phenyl-6-(5-{5-[(2,2,2-trifluoroethoxy)methyl]pyridin-2-yl}-1,2,4-oxadiazol-3-yl)-1,3,5-triazine-2,4-diamine] | 2.5 nM
Nc1nc(Nc2ccccc2)nc(-c2noc(-c3ccc(COCC(F)(F)F)cn3)n2)n1 [Example 350, 2-N-phenyl-6-(5-{5-[(2,2,2-trifluoroethoxy)methyl]pyridin-2-yl}-1,2,4-oxadiazol-3-yl)-1,3,5-triazine-2,4-diamine] | 4 nM
CN(c1ccccc1)c1nc(N)nc(-c2noc(-c3ccc(COCC(F)(F)F)cc3)n2)n1 [Example 351, 2-N-methyl-2-N-phenyl-6-(5-{4-[(2,2,2-trifluoroethoxy)methyl]phenyl}-1,2,4-oxadiazol-3-yl)-1,3,5-triazine-2,4-diamine] | 11 nM
CN(c1ccccc1)c1nc(N)nc(-c2noc(N3CCC(c4ccccc4)CC3)n2)n1 [Example 352, 2-N-methyl-2-N-phenyl-6-[5-(4-phenylpiperidin-1-yl)-1,2,4-oxadiazol-3-yl]-1,3,5-triazine-2,4-diamine] | 1280 nM
CN(c1ccccc1)c1nc(N)nc(-c2noc([C@H]3CCCN3C(=O)OC(C)(C)C)n2)n1 [Example 353, tert-butyl (2R)-2-(3-{4-amino-6-[methyl(phenyl)amino]-1,3,5-triazin-2-yl}-1,2,4-oxadiazol-5-yl)pyrrolidine-1-carboxylate] | 893 nM
CN(c1ccccc1)c1nc(N)nc(-c2noc(N3CCC(Oc4ccccn4)CC3)n2)n1 [Example 354, 2-N-methyl-2-N-phenyl-6-{5-[4-(pyridin-2-yloxy)piperidin-1-yl]-1,2,4-oxadiazol-3-yl}-1,3,5-triazine-2,4-diamine] | 1200 nM
CN(c1ccccc1)c1nc(N)nc(-c2noc(N3CCC(O)(c4ccccc4)CC3)n2)n1 [Example 355, 1-(3-{4-amino-6-[methyl(phenyl)amino]-1,3,5-triazin-2-yl}-1,2,4-oxadiazol-5-yl)-4-phenylpiperidin-4-ol] | 2620 nM
CN(c1ccccc1)c1nc(N)nc(-c2noc(-c3ccc(OC4CCCCC4)nc3)n2)n1 [Example 356, 6-{5-[6-(cyclohexyloxy)pyridin-3-yl]-1,2,4-oxadiazol-3-yl}-2-N-methyl-2-N-phenyl-1,3,5-triazine-2,4-diamine] | 20 nM
CC(Oc1ccc(-c2nc(-c3nc(N)nc(N(C)c4ccccc4)n3)no2)cn1)C(F)(F)F (stereo not drawn) [Example 357, 2-N-methyl-2-N-phenyl-6-(5-{6-[(1,1,1-trifluoropropan-2-yl)oxy]pyridin-3-yl}-1,2,4-oxadiazol-3-yl)-1,3,5-triazine-2,4-diamine] | 55 nM
CC(OCC(F)(F)F)c1ccc(-c2nc(-c3nc(N)nc(N(C)c4ccccc4)n3)no2)nc1 (stereo not drawn) [Example 358, 2-N-Methyl-2-N-phenyl-6-(5-{5-[1-(2,2,2-trifluoroethoxy)ethyl]pyridin-2-yl}-1,2,4-oxadiazol-3-yl)-1,3,5-triazine-2,4-diamine] | 56 nM
CN(c1ccccc1)c1nc(N)nc(-c2noc(-c3ccc(OCCC(F)(F)F)nc3)n2)n1 [Example 359, 2-N-methyl-2-N-phenyl-6-{5-[6-(3,3,3-trifluoropropoxy)pyridin-3-yl]-1,2,4-oxadiazol-3-yl}-1,3,5-triazine-2,4-diamine] | 24 nM
COC1(c2ccccc2)CCN(c2nc(-c3nc(N)nc(N(C)c4ccccc4)n3)no2)CC1 [Example 360, 6-[5-(4-methoxy-4-phenylpiperidin-1-yl)-1,2,4-oxadiazol-3-yl]-2-N-methyl-2-N-phenyl-1,3,5-triazine-2,4-diamine] | 2140 nM
